According to BindingDB's records for patent US20250122174 (Shenzhen Yuanli Shenwan Innovative Medicine, 2025):

Target: Mitogen-activated protein kinase kinase kinase kinase 1 (Homo sapiens, UniProt Q92918)
Assay: HPK1 Inhibition Assay
Experimental: A stock solution of 10 mM test compound was prepared in DMSO. The compound was prepared by 5-fold and 10-point serial dilutions with HPK1 kinase assay buffer. The HPK1 kinase assay buffer contained 40 mM Tris, pH 7.5; 20 mM MgCl2, 0.1 mg/ml BSA, and 50 μM DTT. 7.5 ng/μl of Active HPK1 (Promega, V4098) and 0.1 μg/ml MBP substrate protein were added to the reaction system. The final concentration of ATP in the HPK1 kinase reaction system was 10 μM. Serial diluted compounds were transferred to the reaction system and incubated at room temperature for 1 hr. 5 μL of ADP-Glo™ Reagent (Promega, V9101) was added and incubated for 40 min to stop the kinase reaction and deplete the unconsumed ATP. […] The luminescence was measured with a plate-reading luminometer.

Mitogen-activated protein kinase kinase kinase kinase 1, sequence (Q92918 whole entry): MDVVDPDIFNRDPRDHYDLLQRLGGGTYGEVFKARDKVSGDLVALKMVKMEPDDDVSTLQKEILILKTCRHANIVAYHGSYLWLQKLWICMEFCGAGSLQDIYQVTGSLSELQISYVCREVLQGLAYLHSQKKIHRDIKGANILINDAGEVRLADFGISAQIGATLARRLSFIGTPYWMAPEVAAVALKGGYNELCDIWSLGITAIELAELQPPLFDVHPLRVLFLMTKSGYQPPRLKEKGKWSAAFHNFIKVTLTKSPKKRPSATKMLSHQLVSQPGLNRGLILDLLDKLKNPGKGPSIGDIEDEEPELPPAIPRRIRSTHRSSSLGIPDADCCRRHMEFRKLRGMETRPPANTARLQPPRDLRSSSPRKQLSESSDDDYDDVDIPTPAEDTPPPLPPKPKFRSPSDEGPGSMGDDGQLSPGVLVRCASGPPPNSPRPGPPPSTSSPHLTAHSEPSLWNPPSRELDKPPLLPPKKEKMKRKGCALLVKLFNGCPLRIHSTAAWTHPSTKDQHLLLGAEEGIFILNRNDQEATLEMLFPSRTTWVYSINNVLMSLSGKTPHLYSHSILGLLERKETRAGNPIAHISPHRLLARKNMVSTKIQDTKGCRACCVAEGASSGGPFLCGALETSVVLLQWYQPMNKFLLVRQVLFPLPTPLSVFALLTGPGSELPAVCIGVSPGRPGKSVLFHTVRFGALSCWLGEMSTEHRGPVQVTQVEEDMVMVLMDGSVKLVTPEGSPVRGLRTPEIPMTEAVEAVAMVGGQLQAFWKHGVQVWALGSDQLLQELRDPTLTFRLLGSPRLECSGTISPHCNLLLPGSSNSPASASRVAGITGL

IC50, < 100 nM:
Cn1c(-c2ccncc2F)nc2c(N3CCC[C@H]3CN)c(NC(=O)c3ccnn(-c4c(F)cccc4F)c3=O)ccc21 [US20250122174, Example 43]
Cc1nc2c(N3C[C@@H]4C[C@H]3CN4)c(NC(=O)c3ccc(=O)n(-c4c(F)cccc4F)n3)ccc2n1C [US20250122174, Example 75]
Cc1nc2c(N3CCNC(=O)C3)c(NC(=O)c3ccc(=O)n(-c4c(F)cccc4F)n3)ccc2n1C [US20250122174, Example 83]
Cc1nc2c(N3CC[C@@H](N)C3)c(NC(=O)c3ccc(=O)n(-c4c(Cl)cccc4Cl)n3)ccc2n1C [US20250122174, Example 108]
CC(C)c1nc2c(N3CC[C@H]4NCC[C@H]43)c(NC(=O)c3ccc(=O)n(-c4c(F)cccc4F)n3)ccc2n1C [US20250122174, Example 135]
CC(C)n1ncc2c(N3CCC(N)CC3)c(NC(=O)c3ccc(=O)n(-c4c(F)cccc4F)n3)ccc21 [US20250122174, Example 184]
